Entries after “also recorded” stand apart in the source; their conditions may differ.
What was measured:
[1] = Toxicokinetics in NHP (300 mg/kg repeat dose); format: in vivo, cynomolgus macaques; details: cynomolgus monkey
Experimental: The objectives of this study were to determine the MTD of BPN-15606, characterize potential toxicity, and calculate toxicokinetic parameters of BPN-15606 in adult male and female cynomolgus macaques following daily po dose administration at a near-MTD dose of BPN-15606 for 7 consecutive days. In the dose escalation phase to establish the MTD (phase A), male and female cynomolgus macaques (n = 2/sex) were administered single doses of BPN-15606 at 3, 10, 30, 100, and 300 mg/kg, with 2 to 4 days between each dose escalation (Fig. 10). […] The plasma drug concentrations at the approximate Tmax increased in a dose-dependent manner. […] Comprehensive evaluation of clinical pathology parameters (clinical chemistry, hematology), gross pathology, and histopathologic parameters was carried out at SRI International, according to their standardized protocols. Tissues examined histopathologically included the following: liver, lung, stomach, duodenum, colon, spleen, pancreas, thymus, heart, brain, and kidney.

[2] = tested on: HReN-mGAP AD ReN cells; assay: CytoTox-ONE (lactate dehydrogenase) assay in 3D culture; format: cell-based; details: 70 nM; 1-week-old treated media
Experimental: HReN-mGAP AD ReN cell expression APP^Swedish/London and Presenilin 1^ΔE9 were previously described ([Choi et al., 2014]). The HReN-mGAP AD ReN cells were three-dimensional (3D)–differentiated for 7 weeks, as previously described ([Choi et al., 2014]). The cultures were then harvested and analyzed for the soluble (conditioned media) and insoluble Aβ40/42/38 and p-tau/tau levels, using Meso Scale Discovery electrochemiluminescence system. BPN-15606 (70 nM) and the same volume of DMSO controls were treated in the last 4 weeks. The potential toxicity of the drugs was monitored by CytoTox-ONE (lactate dehydrogenase) assay after 1 week of the treatments. At the end of the treatments, the soluble (media) and the insoluble fractions (5 M GuHCl-soluble extracts) were collected and analyzed for Aβ38, Aβ40, and Aβ42 with MSD enzyme-linked immunosorbent assay (ELISA; V-Plex 6E10 Aβ40/Aβ42/Aβ38 kit). The custom-made plates were used for detecting total tau (BT2; ThermoFisher Scientific, Sommerset, NJ) and pThr181 tau (At270; ThermoFisher Scientific, Sommerset, NJ). The insoluble fraction was dissolved in 5 M GuHCl, and pThr181 tau, total tau, Aβ40, Aβ42, and Aβ38 concentrations were determined by MSD ELISA. The levels of the control protein Tuj1 were determined by dot-blot analysis in the GuHCl lysates (data not shown).

[3] = Repeat-dose (9-day) efficacy study in rats; format: in vivo, Sprague–Dawley rats; details: male, Sprague-Dawley, rat, in vivo
Experimental: (§1) Male C57BL/6J mice (n = 10/dose level) and male Sprague–Dawley rats (n = 14/dose level) were administered either vehicle (80% polyethylene glycol 400 v/v; 20% sterile water v/v and 0.1% Tween 20 v/v) or BPN-15606 (10, 25, and 50 mg/kg) once daily po for 7 consecutive days (mice) or 5, 25, and 50 mg/kg once daily po for 9 consecutive days (rats). […] Animals were sacrificed 4 hours following the dosing on day 7 of the 7-day oral treatment course (mice) and on day 9 of the 9-day oral treatment course (rats). Plasma and brain extracts were prepared (mice and rats); CSF was aspirated from the cisterna magnum with minimal to no blood contamination (rats only); and tissues were frozen at −70°C. Aβ peptides were quantitated in brain extracts and plasma (mice) or CSF and plasma (rats), as described previously, using Meso Scale multiplex kits and the Meso Scale Sector Imager 6000 ([Kounnas et al., 2010]). Statistical analysis was performed using GraphPad Prism software, and results are expressed as mean ± S.E.M. Analysis of variance was used to detect a significant effect. Drug levels of BPN-15606 were measured in plasma and brain extracts using the bioanalytical methods detailed above.

[4] = tested on: Aβ42 and Aβ40 levels; assay: Repeat-dose (9-day) efficacy study in rats; format: in vivo, Sprague–Dawley rats
Experimental: as §1

[5] = tested on: Aβ42 and Aβ40 levels; assay: Acute single-dose pharmacodynamics in mice; format: in vivo, C57BL/6J mice; details: single oral dose 25 mg/kg, C57BL/6 mice
Experimental: Male C57BL/6J mice (n = 5 per group) were administered a single dose of either vehicle (80% polyethylene glycol 400 v/v; 20% sterile water v/v and 0.1% Tween 20 v/v) or BPN-15606 (25 mg/kg) by po and sacrificed at 0.5, 1, 2, 4, 8, 12, and 24 hours following the dosing. Plasma and brain extracts were prepared, and Aβ peptides were quantitated as described previously ([Kounnas et al., 2010]). Statistical analysis was performed as described above for the repeat dosing studies.

[6] = tested on: Aβ42 and Aβ40 levels; assay: Repeat-dose (7-day) efficacy study in mice; format: in vivo, C57BL/6J mice
Experimental: as §1

[7] = tested on: bone marrow polychromatic erythrocytes; assay: Bone marrow micronucleus assay in rats; format: in vivo; details: 7 days at 30 or 100 mg/kg
Experimental: The micronucleus component of this study was performed to evaluate the ability of BPN-15606 to induce chromosomal damage in bone marrow of male Sprague–Dawley rats. Rats (n = 5/group) were scheduled to receive single daily doses of BPN-15606 for 7 days at 30, 100, and 300 mg/kg/d (groups 2, 3, and 4, respectively), with euthanasia scheduled 24 hours after the final dose. Animals receiving 300 mg/kg/d were sacrificed in moribund condition on day 3 or 4 due to excessive toxicity, and micronucleus formation was not evaluated; all other treated animals survived to necropsy. Bone marrow samples collected from the low and mid dose groups (30 and 100 mg/kg) were evaluated for cytotoxicity and for micronucleus formation (see Supplemental Table 8). Three bone marrow smear slides were prepared per animal and fixed in absolute methanol. […] Two slides per animal were stained with acridine orange, coded, and evaluated (blind) using epifluorescence microscopy. […] The criteria employed for identifying and quantitating micronuclei are those described by [Schmid (1975)]. Two principal parameters were determined, as follows: 1) the number of PCE among 200 total red blood cells (RBC) per animal (PCE/RBC ratio), which provides an index of bone marrow cytotoxicity, and 2) the number of micronucleated RNA-positive PCE among a total of 2000 PCE per animal, which provides an index of chromosomal damage.

COc1nc(-c2cc(C)c(N[C@@H](C)c3ccc(F)cc3)nn2)ccc1-n1cnc(C)c1 [BPN-15606, (S)-N-(1-(4-fluorophenyl)ethyl)-6-(6-methoxy-5-(4-methyl-1H-imidazol-1-yl)pyridin-2-yl)-4-methylpyridazin-3-amine]
half-life ([1]; both sexes, plasma, po, 300 mg/kg, cynomolgus macaques, 300 mg/kg po, day 1): 8.7 h
half-life ([1]; both sexes, plasma, po, 300 mg/kg, cynomolgus macaques, 300 mg/kg po, day 6): 10.2 h
Tmax ([1]; both sexes, plasma, cynomolgus macaques, 300 mg/kg po): 2 to 4 h
exposure (AUClast) day 6 relative to day 1 ([1]; both, in vivo, po, 300 mg/kg): about 1.7 fold
toxicity (Cytotox cell death lactate dehydrogenase assay) [2]: did not induce any significant toxicity
NOAEL at 9 days [3]: 50 mg/kg
safety margin based on dose ([4]; rat, NOAEL 50 mg/kg vs lowest efficacious dose 5 mg/kg): ≥ 10 fold
lowering of CSF Aβ42 levels ([4]; rats, 5 mg/kg): ~40%
lowering of CSF Aβ42 levels ([4]; rats, 25 mg/kg): 70–75%
lowering of plasma Aβ42 ([4]; rats, 25 mg/kg): > 90%
clinical observations ([4]; rats, 5, 25, 50 mg/kg po daily for 9 days): all animals appeared normal throughout the study
duration of effect on brain and plasma Aβ42 and Aβ40 levels [5]: ≥ 24 h
onset of effect on brain and plasma Aβ42 and Aβ40 levels [5]: 30 to 60 min
lowering of brain Aβ42 levels ([6]; mice, 10 mg/kg): ~40%
lowering of brain Aβ42 levels ([6]; mice, 25 mg/kg): 70–75%
lowering of plasma Aβ42 ([6]; mice, 25 mg/kg): > 90%
clinical observations ([6]; mice, 10, 25, 50 mg/kg po daily for 7 days): all animals appeared normal throughout the study
micronucleus induction in bone marrow (micronucleated PCE) [7]: did not induce micronuclei; also recorded: no statistically significant increase
suppression of PCE among RBC in bone marrow [7]: no significant suppression
